Results reported in the kinase profiling compilation of Christmann-Franck et al. (2016).

Assays:
Assay in all cases: radiometric filter-binding kinase assay, Kinase HotSpot
Settings in all cases: compound 0.5 µM; ATP 10 µM
ABL2 (human) = ABL2 (human) (UniProt P42684)
CDK9 CCNK (human) = CDK9 CCNK (human) (UniProt O75909+P50750)
MAP4K5 (human) = MAP4K5 (human) (UniProt Q9Y4K4)
KDR (human) = KDR (human) (UniProt P35968)
FLT3 (human) = FLT3 (human) (UniProt P36888)
AXL (human) = AXL (human) (UniProt P30530)
CHEK1 (human) = CHEK1 (human) (UniProt O14757)
RPS6KA5 KD2 (human) = RPS6KA5 KD2 (human) (UniProt O75582)
RPS6KA4 KD2 (human) = RPS6KA4 KD2 (human) (UniProt O75676)
PIM3 (human) = PIM3 (human) (UniProt Q86V86)
PRKACA (human) = PRKACA (human) (UniProt P17612)
ERBB4 (human) = ERBB4 (human) (UniProt Q15303)
PRKD2 (human) = PRKD2 (human) (UniProt Q9BZL6)
NEK4 (human) = NEK4 (human) (UniProt P51957)
PDGFRA (human) = PDGFRA (human) (UniProt P16234)
CDK4 CCND3 (human) = CDK4 CCND3 (human) (UniProt P30281+P11802)
EPHA1 (human) = EPHA1 (human) (UniProt P21709)
NEK9 (human) = NEK9 (human) (UniProt Q8TD19)
MAP3K7 TAB1 (human) = MAP3K7 TAB1 (human) (UniProt O43318+Q15750)
PRKG2 (human) = PRKG2 (human) (UniProt Q13237)
MST4 (human) = MST4 (human) (UniProt Q9P289)
CHEK2 (human) = CHEK2 (human) (UniProt O96017)
FGFR3 (human) = FGFR3 (human) (UniProt P22607)
MARK4 (human) = MARK4 (human) (UniProt Q96L34)
TBK1 (human) = TBK1 (human) (UniProt Q9UHD2)
MATK (human) = MATK (human) (UniProt P42679)
LIMK1 (human) = LIMK1 (human) (UniProt P53667)
ACVRL1 (human) = ACVRL1 (human) (UniProt P37023)
PHKG2 (human) = PHKG2 (human) (UniProt P15735)
CDK1 CCNB1 (human) = CDK1 CCNB1 (human) (UniProt P06493+P14635)
TGFBR2 (human) = TGFBR2 (human) (UniProt P37173)
CSNK1E (human) = CSNK1E (human) (UniProt P49674)
ULK1 (human) = ULK1 (human) (UniProt O75385)
HIPK2 (human) = HIPK2 (human) (UniProt Q9H2X6)
GSK3A (human) = GSK3A (human) (UniProt P49840)
WNK3 (human) = WNK3 (human) (UniProt Q9BYP7)
ROCK2 (human) = ROCK2 (human) (UniProt O75116)
CAMK2B (human) = CAMK2B (human) (UniProt Q13554)
CDK2 CCNA2 (human) = CDK2 CCNA2 (human) (UniProt P24941+P20248)
CHUK (human) = CHUK (human) (UniProt O15111)
VRK1 (human) = VRK1 (human) (UniProt Q99986)

Sequence of CDK1 CCNB1 (human) (P06493 whole entry, looked up): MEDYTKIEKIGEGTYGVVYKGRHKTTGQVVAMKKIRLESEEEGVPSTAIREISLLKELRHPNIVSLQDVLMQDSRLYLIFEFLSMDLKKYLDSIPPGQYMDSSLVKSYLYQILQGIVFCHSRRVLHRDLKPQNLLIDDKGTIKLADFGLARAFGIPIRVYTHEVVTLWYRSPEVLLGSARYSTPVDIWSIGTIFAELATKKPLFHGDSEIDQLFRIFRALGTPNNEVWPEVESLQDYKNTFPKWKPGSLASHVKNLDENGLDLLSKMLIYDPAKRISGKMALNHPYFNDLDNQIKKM
Sequence of CDK1 CCNB1 (human) (P14635 whole entry, looked up): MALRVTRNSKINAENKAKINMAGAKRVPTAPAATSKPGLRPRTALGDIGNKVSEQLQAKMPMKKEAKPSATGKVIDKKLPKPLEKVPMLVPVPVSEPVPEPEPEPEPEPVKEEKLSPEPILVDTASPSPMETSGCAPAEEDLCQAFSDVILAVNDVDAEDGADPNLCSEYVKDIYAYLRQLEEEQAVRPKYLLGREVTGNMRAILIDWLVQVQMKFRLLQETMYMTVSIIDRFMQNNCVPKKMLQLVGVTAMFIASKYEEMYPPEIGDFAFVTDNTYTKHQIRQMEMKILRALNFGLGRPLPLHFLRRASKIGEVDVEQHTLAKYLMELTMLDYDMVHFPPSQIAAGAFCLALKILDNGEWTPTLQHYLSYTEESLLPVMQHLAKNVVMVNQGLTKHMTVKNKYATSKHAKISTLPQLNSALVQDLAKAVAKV
Sequence of CHEK2 (human) (O96017 whole entry, looked up): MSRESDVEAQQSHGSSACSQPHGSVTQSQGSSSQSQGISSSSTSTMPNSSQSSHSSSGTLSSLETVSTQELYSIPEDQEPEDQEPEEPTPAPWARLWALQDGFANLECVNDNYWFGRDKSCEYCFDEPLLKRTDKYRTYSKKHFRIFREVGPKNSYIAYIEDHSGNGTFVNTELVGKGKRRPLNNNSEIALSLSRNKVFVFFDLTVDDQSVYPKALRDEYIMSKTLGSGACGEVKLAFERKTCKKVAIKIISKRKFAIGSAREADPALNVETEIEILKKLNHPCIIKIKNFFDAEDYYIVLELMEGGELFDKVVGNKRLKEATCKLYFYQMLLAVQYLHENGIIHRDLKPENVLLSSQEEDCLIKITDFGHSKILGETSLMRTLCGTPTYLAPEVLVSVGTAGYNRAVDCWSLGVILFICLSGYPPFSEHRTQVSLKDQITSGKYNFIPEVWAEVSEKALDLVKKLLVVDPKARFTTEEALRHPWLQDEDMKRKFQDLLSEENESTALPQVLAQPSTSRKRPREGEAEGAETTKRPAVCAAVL
Sequence of KDR (human) (P35968 whole entry, looked up): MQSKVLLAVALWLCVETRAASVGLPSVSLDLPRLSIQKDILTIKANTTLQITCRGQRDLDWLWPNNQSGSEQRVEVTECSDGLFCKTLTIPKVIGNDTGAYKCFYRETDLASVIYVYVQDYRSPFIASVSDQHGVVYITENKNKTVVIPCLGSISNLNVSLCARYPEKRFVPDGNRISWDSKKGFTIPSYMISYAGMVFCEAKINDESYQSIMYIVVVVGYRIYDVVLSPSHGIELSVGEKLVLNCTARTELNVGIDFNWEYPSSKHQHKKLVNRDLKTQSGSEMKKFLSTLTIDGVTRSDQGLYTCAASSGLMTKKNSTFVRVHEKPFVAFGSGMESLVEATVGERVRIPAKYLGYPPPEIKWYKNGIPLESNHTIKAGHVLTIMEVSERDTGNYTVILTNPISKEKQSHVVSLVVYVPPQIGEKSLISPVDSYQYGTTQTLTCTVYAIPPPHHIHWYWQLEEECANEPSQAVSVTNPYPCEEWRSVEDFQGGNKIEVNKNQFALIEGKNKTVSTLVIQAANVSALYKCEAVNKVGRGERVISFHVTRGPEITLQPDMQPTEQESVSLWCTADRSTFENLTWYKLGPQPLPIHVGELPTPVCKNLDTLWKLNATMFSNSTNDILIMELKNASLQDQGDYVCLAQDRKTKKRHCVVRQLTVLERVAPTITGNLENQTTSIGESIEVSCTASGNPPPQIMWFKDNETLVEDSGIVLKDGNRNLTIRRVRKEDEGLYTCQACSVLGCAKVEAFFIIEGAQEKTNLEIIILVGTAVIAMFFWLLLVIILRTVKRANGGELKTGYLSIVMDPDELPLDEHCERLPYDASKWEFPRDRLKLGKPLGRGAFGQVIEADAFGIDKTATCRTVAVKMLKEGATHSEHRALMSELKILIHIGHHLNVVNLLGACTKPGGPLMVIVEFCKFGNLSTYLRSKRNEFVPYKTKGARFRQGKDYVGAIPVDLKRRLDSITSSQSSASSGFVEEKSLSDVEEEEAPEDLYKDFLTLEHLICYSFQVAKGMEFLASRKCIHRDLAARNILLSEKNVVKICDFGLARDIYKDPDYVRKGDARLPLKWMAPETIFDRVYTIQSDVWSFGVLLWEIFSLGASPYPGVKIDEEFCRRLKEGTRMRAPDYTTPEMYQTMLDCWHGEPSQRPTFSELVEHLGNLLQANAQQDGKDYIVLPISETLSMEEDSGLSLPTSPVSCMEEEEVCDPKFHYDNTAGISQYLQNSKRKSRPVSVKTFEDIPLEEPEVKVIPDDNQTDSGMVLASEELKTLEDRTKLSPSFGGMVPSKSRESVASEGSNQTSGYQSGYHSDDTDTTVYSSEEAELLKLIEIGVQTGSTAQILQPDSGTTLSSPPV
Sequence of TBK1 (human) (Q9UHD2 whole entry, looked up): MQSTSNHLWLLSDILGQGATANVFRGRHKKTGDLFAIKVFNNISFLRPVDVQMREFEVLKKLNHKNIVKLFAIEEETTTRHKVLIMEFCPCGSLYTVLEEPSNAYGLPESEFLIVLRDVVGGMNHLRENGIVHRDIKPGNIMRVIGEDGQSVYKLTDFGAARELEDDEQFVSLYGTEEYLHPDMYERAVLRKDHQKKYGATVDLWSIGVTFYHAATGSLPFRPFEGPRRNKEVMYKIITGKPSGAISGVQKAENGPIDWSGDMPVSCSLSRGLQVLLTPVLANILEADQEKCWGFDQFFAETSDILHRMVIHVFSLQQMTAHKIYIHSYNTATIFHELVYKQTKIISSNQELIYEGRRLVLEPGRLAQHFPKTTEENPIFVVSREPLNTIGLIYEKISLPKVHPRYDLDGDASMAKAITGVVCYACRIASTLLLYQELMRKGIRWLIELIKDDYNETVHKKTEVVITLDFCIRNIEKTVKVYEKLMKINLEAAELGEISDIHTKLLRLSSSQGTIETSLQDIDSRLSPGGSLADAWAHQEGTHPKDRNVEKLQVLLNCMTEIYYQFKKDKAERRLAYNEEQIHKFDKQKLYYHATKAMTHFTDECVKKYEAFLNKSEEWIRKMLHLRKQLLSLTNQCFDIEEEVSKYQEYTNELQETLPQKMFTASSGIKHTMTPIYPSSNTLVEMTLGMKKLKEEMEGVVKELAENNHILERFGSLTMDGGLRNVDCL
Sequence of CDK9 CCNK (human) (O75909 whole entry, looked up): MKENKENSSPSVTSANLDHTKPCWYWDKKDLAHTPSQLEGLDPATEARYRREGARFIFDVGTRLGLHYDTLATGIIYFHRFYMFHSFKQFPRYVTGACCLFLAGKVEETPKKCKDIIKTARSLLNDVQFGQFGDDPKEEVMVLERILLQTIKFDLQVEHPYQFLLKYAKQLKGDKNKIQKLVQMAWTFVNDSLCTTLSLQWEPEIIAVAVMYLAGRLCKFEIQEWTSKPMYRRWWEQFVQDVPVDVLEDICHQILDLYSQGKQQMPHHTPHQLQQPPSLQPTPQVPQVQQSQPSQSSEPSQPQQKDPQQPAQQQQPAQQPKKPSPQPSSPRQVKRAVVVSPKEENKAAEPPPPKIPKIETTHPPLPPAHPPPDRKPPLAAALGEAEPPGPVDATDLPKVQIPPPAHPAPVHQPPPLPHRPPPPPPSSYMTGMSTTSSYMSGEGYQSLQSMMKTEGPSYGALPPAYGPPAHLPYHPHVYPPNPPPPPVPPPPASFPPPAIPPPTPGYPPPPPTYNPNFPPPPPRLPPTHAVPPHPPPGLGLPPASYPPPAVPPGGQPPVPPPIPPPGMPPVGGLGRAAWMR
Sequence of CDK9 CCNK (human) (P50750 whole entry, looked up): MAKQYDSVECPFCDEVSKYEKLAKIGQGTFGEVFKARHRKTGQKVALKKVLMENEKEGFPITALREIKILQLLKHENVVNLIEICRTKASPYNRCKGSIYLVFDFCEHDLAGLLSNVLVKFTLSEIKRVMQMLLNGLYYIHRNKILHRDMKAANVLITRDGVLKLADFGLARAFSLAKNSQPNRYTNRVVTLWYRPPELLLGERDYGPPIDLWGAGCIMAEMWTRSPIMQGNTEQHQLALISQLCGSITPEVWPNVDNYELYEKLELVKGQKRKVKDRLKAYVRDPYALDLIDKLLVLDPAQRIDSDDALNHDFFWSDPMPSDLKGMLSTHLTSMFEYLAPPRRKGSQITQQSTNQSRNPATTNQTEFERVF
Sequence of CDK4 CCND3 (human) (P11802 whole entry, looked up): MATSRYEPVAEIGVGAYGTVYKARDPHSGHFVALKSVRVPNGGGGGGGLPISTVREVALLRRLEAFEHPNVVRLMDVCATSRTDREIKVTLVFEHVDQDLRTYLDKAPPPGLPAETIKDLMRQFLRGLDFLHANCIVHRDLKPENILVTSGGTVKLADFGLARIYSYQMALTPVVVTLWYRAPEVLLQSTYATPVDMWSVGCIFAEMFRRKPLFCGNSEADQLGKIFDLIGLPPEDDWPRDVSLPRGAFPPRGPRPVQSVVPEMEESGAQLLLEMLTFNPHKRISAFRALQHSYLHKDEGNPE
Sequence of CDK4 CCND3 (human) (P30281 whole entry, looked up): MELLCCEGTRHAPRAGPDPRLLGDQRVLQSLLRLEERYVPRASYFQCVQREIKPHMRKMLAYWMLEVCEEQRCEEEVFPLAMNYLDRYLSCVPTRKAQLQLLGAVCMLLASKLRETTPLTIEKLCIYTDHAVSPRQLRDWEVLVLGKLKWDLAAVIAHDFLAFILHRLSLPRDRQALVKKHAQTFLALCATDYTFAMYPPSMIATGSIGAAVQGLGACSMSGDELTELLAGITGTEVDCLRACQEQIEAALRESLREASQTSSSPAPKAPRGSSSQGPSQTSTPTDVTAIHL

Question: With `Nc1nc(Nc2ccc(S(N)(=O)=O)cc2)nn1C(=O)c1c(F)cccc1F` as the molecule, how does the residual activity (ABL2 (human)) read?
Answer: 53.9%

Question: And the residual activity (CDK9 CCNK (human))?
Answer: 27.4%

Question: And the residual activity (MAP4K5 (human))?
Answer: 45.3%

Question: And the residual activity (KDR (human))?
Answer: 64.6%

Question: And the residual activity (FLT3 (human))?
Answer: 44.3%

Question: What about the residual activity (AXL (human)) of the same molecule?
Answer: 94.2%

Question: What about the residual activity (CHEK1 (human)) of the same molecule?
Answer: 76.3%

Question: What about the residual activity (RPS6KA5 KD2 (human)) of the same molecule?
Answer: 97.2%

Question: What about the residual activity (RPS6KA4 KD2 (human)) of the same molecule?
Answer: 90.2%

Question: What about the residual activity (PIM3 (human)) of the same molecule?
Answer: 102%

Question: And the residual activity (PRKACA (human))?
Answer: 98.8%

Question: What about the residual activity (ERBB4 (human)) of the same molecule?
Answer: 110%

Question: What about the residual activity (PRKD2 (human)) of the same molecule?
Answer: 86%

Question: And the residual activity (NEK4 (human))?
Answer: 79.2%

Question: What about the residual activity (PDGFRA (human)) of the same molecule?
Answer: 82%

Question: What about the residual activity (CDK4 CCND3 (human)) of the same molecule?
Answer: 34.7%

Question: What about the residual activity (EPHA1 (human)) of the same molecule?
Answer: 73.7%

Question: What about the residual activity (NEK9 (human)) of the same molecule?
Answer: 82.2%

Question: What about the residual activity (MAP3K7 TAB1 (human)) of the same molecule?
Answer: 77.4%

Question: What about the residual activity (PRKG2 (human)) of the same molecule?
Answer: 92.2%

Question: And the residual activity (MST4 (human))?
Answer: 64.2%

Question: And the residual activity (CHEK2 (human))?
Answer: 63.6%

Question: And the residual activity (FGFR3 (human))?
Answer: 46.4%

Question: And the residual activity (MARK4 (human))?
Answer: 48%

Question: And the residual activity (TBK1 (human))?
Answer: 80%

Question: What about the residual activity (MATK (human)) of the same molecule?
Answer: 104%

Question: What about the residual activity (LIMK1 (human)) of the same molecule?
Answer: 16.6%

Question: And the residual activity (ACVRL1 (human))?
Answer: 88.5%

Question: And the residual activity (PHKG2 (human))?
Answer: 102%

Question: What about the residual activity (CDK1 CCNB1 (human)) of the same molecule?
Answer: 5.65%

Question: What about the residual activity (TGFBR2 (human)) of the same molecule?
Answer: 98.5%

Question: What about the residual activity (CSNK1E (human)) of the same molecule?
Answer: 96.9%

Question: And the residual activity (ULK1 (human))?
Answer: 62.5%

Question: What about the residual activity (HIPK2 (human)) of the same molecule?
Answer: 72.8%

Question: And the residual activity (GSK3A (human))?
Answer: 9.59%

Question: And the residual activity (WNK3 (human))?
Answer: 98.3%

Question: What about the residual activity (ROCK2 (human)) of the same molecule?
Answer: 18.6%

Question: What about the residual activity (CAMK2B (human)) of the same molecule?
Answer: 99.7%

Question: What about the residual activity (CDK2 CCNA2 (human)) of the same molecule?
Answer: 2.21%

Question: What about the residual activity (CHUK (human)) of the same molecule?
Answer: 99%

Question: And the residual activity (VRK1 (human))?
Answer: 90.4%

Question: With `Oc1ccc(-c2nc(-c3ccc(F)cc3)c(-c3ccncc3)[nH]2)cc1` as the molecule, how does the residual activity (ABL2 (human)) read?
Answer: 91.1%

Question: What about the residual activity (CDK9 CCNK (human)) of the same molecule?
Answer: 101%

Question: What about the residual activity (MAP4K5 (human)) of the same molecule?
Answer: 96.6%

Question: What about the residual activity (KDR (human)) of the same molecule?
Answer: 99.9%

Question: And the residual activity (FLT3 (human))?
Answer: 95.1%

Question: And the residual activity (AXL (human))?
Answer: 99.8%

Question: What about the residual activity (CHEK1 (human)) of the same molecule?
Answer: 98.9%

Question: What about the residual activity (RPS6KA5 KD2 (human)) of the same molecule?
Answer: 107%

Question: And the residual activity (RPS6KA4 KD2 (human))?
Answer: 95.9%

Question: And the residual activity (PIM3 (human))?
Answer: 98.7%

Question: And the residual activity (PRKACA (human))?
Answer: 84.3%

Question: What about the residual activity (ERBB4 (human)) of the same molecule?
Answer: 83.1%

Question: What about the residual activity (PRKD2 (human)) of the same molecule?
Answer: 79.9%

Question: And the residual activity (NEK4 (human))?
Answer: 94%

Question: And the residual activity (PDGFRA (human))?
Answer: 98.8%

Question: What about the residual activity (CDK4 CCND3 (human)) of the same molecule?
Answer: 104%

Question: What about the residual activity (EPHA1 (human)) of the same molecule?
Answer: 94.4%

Question: What about the residual activity (NEK9 (human)) of the same molecule?
Answer: 99.4%

Question: And the residual activity (MAP3K7 TAB1 (human))?
Answer: 97.7%

Question: And the residual activity (PRKG2 (human))?
Answer: 94.2%

Question: And the residual activity (MST4 (human))?
Answer: 101%

Question: What about the residual activity (CHEK2 (human)) of the same molecule?
Answer: 98.9%

Question: What about the residual activity (FGFR3 (human)) of the same molecule?
Answer: 99.2%

Question: What about the residual activity (MARK4 (human)) of the same molecule?
Answer: 100%

Question: What about the residual activity (TBK1 (human)) of the same molecule?
Answer: 95.2%

Question: What about the residual activity (MATK (human)) of the same molecule?
Answer: 90.3%

Question: What about the residual activity (LIMK1 (human)) of the same molecule?
Answer: 91.4%

Question: What about the residual activity (ACVRL1 (human)) of the same molecule?
Answer: 95.4%

Question: What about the residual activity (PHKG2 (human)) of the same molecule?
Answer: 94.3%

Question: And the residual activity (CDK1 CCNB1 (human))?
Answer: 99%

Question: What about the residual activity (TGFBR2 (human)) of the same molecule?
Answer: 127%

Question: And the residual activity (CSNK1E (human))?
Answer: 32.7%

Question: What about the residual activity (ULK1 (human)) of the same molecule?
Answer: 89%

Question: What about the residual activity (HIPK2 (human)) of the same molecule?
Answer: 102%

Question: And the residual activity (GSK3A (human))?
Answer: 91.1%

Question: What about the residual activity (WNK3 (human)) of the same molecule?
Answer: 101%

Question: What about the residual activity (ROCK2 (human)) of the same molecule?
Answer: 93.6%

Question: And the residual activity (CAMK2B (human))?
Answer: 96.4%

Question: What about the residual activity (CDK2 CCNA2 (human)) of the same molecule?
Answer: 101%

Question: And the residual activity (CHUK (human))?
Answer: 107%

Question: What about the residual activity (VRK1 (human)) of the same molecule?
Answer: 98.7%

Question: What does the source list for `O=C(Nc1ccc(Cl)cc1)c1ccccc1NCc1ccncc1`?
Answer: residual activity (ABL2 (human)): 93.4%; residual activity (CDK9 CCNK (human)): 95.5%; residual activity (MAP4K5 (human)): 95.8%; residual activity (KDR (human)): 28.2%; residual activity (FLT3 (human)): 91.5%; residual activity (AXL (human)): 98.1%; residual activity (CHEK1 (human)): 96.4%; residual activity (RPS6KA5 KD2 (human)): 92.5%; residual activity (RPS6KA4 KD2 (human)): 90.2%; residual activity (PIM3 (human)): 93%; residual activity (PRKACA (human)): 97.1%; residual activity (ERBB4 (human)): 71.3%; residual activity (PRKD2 (human)): 98%; residual activity (NEK4 (human)): 85.8%; residual activity (PDGFRA (human)): 81.3%; residual activity (CDK4 CCND3 (human)): 94.2%; residual activity (EPHA1 (human)): 97%; residual activity (NEK9 (human)): 91.2%; residual activity (MAP3K7 TAB1 (human)): 98.1%; residual activity (PRKG2 (human)): 99.1%; residual activity (MST4 (human)): 90.9%; residual activity (CHEK2 (human)): 94.5%; residual activity (FGFR3 (human)): 92.2%; residual activity (MARK4 (human)): 107%; residual activity (TBK1 (human)): 88.4%; residual activity (MATK (human)): 99.3%; residual activity (LIMK1 (human)): 83.4%; residual activity (ACVRL1 (human)): 98.9%; residual activity (PHKG2 (human)): 97.1%; residual activity (CDK1 CCNB1 (human)): 96.3%; residual activity (TGFBR2 (human)): 90.1%; residual activity (CSNK1E (human)): 92.5%; residual activity (ULK1 (human)): 86.9%; residual activity (HIPK2 (human)): 93%; residual activity (GSK3A (human)): 80.1%; residual activity (WNK3 (human)): 92.9%; residual activity (ROCK2 (human)): 93.8%; residual activity (CAMK2B (human)): 93.4%; residual activity (CDK2 CCNA2 (human)): 92.2%; residual activity (CHUK (human)): 104%; residual activity (VRK1 (human)): 104%
